According to patent US20020052295A1, “Diacyl derivatives of propylene diamine having herbicidal activity” (priority 1999, published 2002):

Experiments:
SETFA [1] = assay: Pre-emergence herbicidal activity on SETFA (giant foxtail); type: in vivo, Setaria faberi; settings: lowest tested rate giving 80% or greater inhibition, approx. 14 days after planting and treating, greenhouse
Method in brief: (§1)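 Seeds sown on sterilized fertilized topsoil and covered, then compound in organic solvent diluted with 50:50 acetone/water applied to soil surface; greenhouse at 30/21° C. day/night with 0.64 cm overhead irrigation. Percent inhibition versus untreated plants scored about 14 days after treatment; GR80 derived, highest rate typically 1000 g/ha.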

PANDI [2] = assay: Pre-emergence herbicidal activity on PANDI (fall panicum); type: in vivo, Panicum dichotomiflorum; settings: lowest tested rate giving 80% or greater inhibition, approx. 14 days after planting and treating, greenhouse
Method in brief: as §1

ABUTH [3] = assay: Post-emergence herbicidal activity on ABUTH (velvetleaf); type: in vivo, Abutilon theophrasti; settings: post-emergence spray; lowest tested rate with 80% or greater inhibition; about 14 days after treatment
Text: (§2) All such uses, and the biological activity enabling such uses, are embraced by the term “herbicidal” herein. Tables 15 and 16 summarize results of tests conducted as described below to determine the pre-emergence herbicidal activity, in the form of a GR80 value, of illustrative compounds of this invention. […] Where herbicidal activity was evident but 80% inhibition was not achieved at the highest rate tested (typically 1000 g/ha), an asterisk (*) is shown in the following tables. Herbicidal activity evident in the form of symptoms of phytotoxicity, in the absence of at least 80% inhibition at any rate, is indicated in the tables by “phyto”. A blank cell in the following tables indicates no herbicidal or phytotoxic response at any rate tested.
(§3) In another set of tests, the post-emergence activity of compounds of this invention was evaluated on the cool season species listed above. The following procedure was used.
(§4) A pre-prepared topsoil mixture (described above) was placed in a pot and compacted to a depth of 1.0 to 1.25 cm from the top of the pot. Seeds of each of several monocotyledonous and dicotyledonous annual plant species were placed on top of the soil The seeds were covered with a mixture of 50% topsoil and 50% Rediearth™ in sufficient quantity to level-fill the pots. The pots were then placed on a greenhouse bench and subirrigated as needed until plants growing from the seeds had emerged and reached a suitable growth stage for post-emergence treatment, typically 9 to 14 days after planting.
(§5) A known amount of each test compound dissolved or suspended in an appropriate organic solvent was diluted with a 50:50 mix of acetone and water and applied to the plants by spraying with a standard spray nozzle in a spray volume of 3,100 l/ha at a spray pressure of […] (30 psig). Control plants were not sprayed.
(§6) After treatment the plants were placed in a greenhouse with a 30/21° C. day/night temperature regime and were subsequently watered as needed for growth. Approximately 14 days after treatment, the plants were observed and herbicidal efficacy recorded as percent inhibition by comparison with control plants.

DATST [4] = assay: Post-emergence herbicidal activity on DATST (jimsonweed); type: in vivo, Datura stramonium; settings: post-emergence spray; lowest tested rate with 80% or greater inhibition; about 14 days after treatment
Text: as §2, §3, §4, §5, §6

SORHA [5] = assay: Pre-emergence herbicidal activity on SORHA (johnsongrass, seedling); type: in vivo, Sorghum halepense; settings: lowest tested rate giving 80% or greater inhibition, approx. 14 days after planting and treating, greenhouse
Method in brief: as §1

DIGSA [6] = assay: Pre-emergence herbicidal activity on DIGSA (large crabgrass); type: in vivo, Digitaria sanguinalis; settings: lowest tested rate giving 80% or greater inhibition, approx. 14 days after planting and treating, greenhouse
Method in brief: as §1

ABUTH [7] = assay: Pre-emergence herbicidal activity on ABUTH (velvetleaf); type: in vivo, Abutilon theophrasti; settings: lowest tested rate giving 80% or greater inhibition, approx. 14 days after planting and treating, greenhouse
Method in brief: as §1

SOLNI [8] = assay: Pre-emergence herbicidal activity on SOLNI (black nightshade); type: in vivo, Solanum nigrum; settings: lowest tested rate giving 80% or greater inhibition, approx. 14 days after planting and treating, greenhouse
Method in brief: as §1

SOLNI [9] = assay: Post-emergence herbicidal activity on SOLNI (black nightshade); type: in vivo, Solanum nigrum; settings: post-emergence spray; lowest tested rate with 80% or greater inhibition; about 14 days after treatment
Text: as §2, §3, §4, §5, §6

CHEAL [10] = assay: Pre-emergence herbicidal activity on CHEAL (common lambsquarters); type: in vivo, Chenopodium album; settings: lowest tested rate giving 80% or greater inhibition, approx. 14 days after planting and treating, greenhouse
Method in brief: as §1

POROL [11] = assay: Pre-emergence herbicidal activity on POROL (common purslane); type: in vivo, Portulaca oleracea; settings: lowest tested rate giving 80% or greater inhibition, approx. 14 days after planting and treating, greenhouse
Method in brief: as §1

SORVU [12] = assay: Pre-emergence herbicidal activity on SORVU (shattercane); type: in vivo, Sorghum vulgare; settings: lowest tested rate giving 80% or greater inhibition, approx. 14 days after planting and treating, greenhouse
Method in brief: as §1

CONAR [13] = assay: Pre-emergence herbicidal activity on CONAR (field bindweed); type: in vivo, Convolvulus arvensis; settings: lowest tested rate giving 80% or greater inhibition, approx. 14 days after planting and treating, greenhouse
Method in brief: as §1

CIRAR [14] = assay: Post-emergence herbicidal activity on CIRAR (canada thistle, seedling); type: in vivo, Cirsium arvense; settings: post-emergence spray; lowest tested rate with 80% or greater inhibition; about 14 days after treatment
Text: as §2, §3, §4, §5, §6

CIRAR [15] = assay: Pre-emergence herbicidal activity on CIRAR (canada thistle, seedling); type: in vivo, Cirsium arvense; settings: lowest tested rate giving 80% or greater inhibition, approx. 14 days after planting and treating, greenhouse
Method in brief: as §1

AMARE [16] = assay: Post-emergence herbicidal activity on AMARE (redroot pigweed); type: in vivo, Amaranthus retroflexus; settings: post-emergence spray; lowest tested rate with 80% or greater inhibition; about 14 days after treatment
Text: as §2, §3, §4, §5, §6

BRAPP [17] = assay: Pre-emergence herbicidal activity on BRAPP (broadleaf signalgrass); type: in vivo, Brachiaria platyphylla; settings: lowest tested rate giving 80% or greater inhibition, approx. 14 days after planting and treating, greenhouse
Method in brief: as §1

CHEAL [18] = assay: Post-emergence herbicidal activity on CHEAL (common lambsquarters); type: in vivo, Chenopodium album; settings: post-emergence spray; lowest tested rate with 80% or greater inhibition; about 14 days after treatment
Text: as §2, §3, §4, §5, §6

CONAR [19] = assay: Post-emergence herbicidal activity on CONAR (field bindweed); type: in vivo, Convolvulus arvensis; settings: post-emergence spray; lowest tested rate with 80% or greater inhibition; about 14 days after treatment
Text: as §2, §3, §4, §5, §6

PANMI [20] = assay: Pre-emergence herbicidal activity on PANMI (wild proso millet); type: in vivo, Panicum miliaceum; settings: lowest tested rate giving 80% or greater inhibition, approx. 14 days after planting and treating, greenhouse
Method in brief: as §1

AMARE [21] = assay: Pre-emergence herbicidal activity on AMARE (redroot pigweed); type: in vivo, Amaranthus retroflexus; settings: lowest tested rate giving 80% or greater inhibition, approx. 14 days after planting and treating, greenhouse
Method in brief: as §1

POROL [22] = assay: Post-emergence herbicidal activity on POROL (common purslane; table head prints PORAL); type: in vivo, Portulaca oleracea; settings: post-emergence spray; lowest tested rate with 80% or greater inhibition; about 14 days after treatment
Text: as §2, §3, §4, §5, §6

ECHCG [23] = assay: Pre-emergence herbicidal activity on ECHCG (barnyardgrass); type: in vivo, Echinochloa crus-galli; settings: lowest tested rate giving 80% or greater inhibition, approx. 14 days after planting and treating, greenhouse
Method in brief: as §1

DATST [24] = assay: Pre-emergence herbicidal activity on DATST (jimsonweed); type: in vivo, Datura stramonium; settings: lowest tested rate giving 80% or greater inhibition, approx. 14 days after planting and treating, greenhouse
Method in brief: as §1

SETFA [25] = assay: Post-emergence herbicidal activity on SETFA (giant foxtail); type: in vivo, Setaria faberi; settings: post-emergence spray; lowest tested rate with 80% or greater inhibition; about 14 days after treatment
Text: as §2, §3, §4, §5, §6

SORHA [26] = assay: Post-emergence herbicidal activity on SORHA (johnsongrass, seedling); type: in vivo, Sorghum halepense; settings: post-emergence spray; lowest tested rate with 80% or greater inhibition; about 14 days after treatment
Text: as §2, §3, §4, §5, §6

ECHCG [27] = assay: Post-emergence herbicidal activity on ECHCG (barnyardgrass); type: in vivo, Echinochloa crus-galli; settings: post-emergence spray; lowest tested rate with 80% or greater inhibition; about 14 days after treatment
Text: as §2, §3, §4, §5, §6

SORVU [28] = assay: Post-emergence herbicidal activity on SORVU (shattercane); type: in vivo, Sorghum vulgare; settings: post-emergence spray; lowest tested rate with 80% or greater inhibition; about 14 days after treatment
Text: as §2, §3, §4, §5, §6

PANDI [29] = assay: Post-emergence herbicidal activity on PANDI (fall panicum); type: in vivo, Panicum dichotomiflorum; settings: post-emergence spray; lowest tested rate with 80% or greater inhibition; about 14 days after treatment
Text: as §2, §3, §4, §5, §6

BRAPP [30] = assay: Post-emergence herbicidal activity on BRAPP (broadleaf signalgrass); type: in vivo, Brachiaria platyphylla; settings: post-emergence spray; lowest tested rate with 80% or greater inhibition; about 14 days after treatment
Text: as §2, §3, §4, §5, §6

DIGSA [31] = assay: Post-emergence herbicidal activity on DIGSA (large crabgrass); type: in vivo, Digitaria sanguinalis; settings: post-emergence spray; lowest tested rate with 80% or greater inhibition; about 14 days after treatment
PANMI [32] = assay: Post-emergence herbicidal activity on PANMI (wild proso millet); type: in vivo, Panicum miliaceum; settings: post-emergence spray; lowest tested rate with 80% or greater inhibition; about 14 days after treatment

| SMILES | Pre-emergence activity (GR80) on SETFA (SETFA [1]) | Pre-emergence activity (GR80) on PANDI (PANDI [2]) | Post-emergence activity (GR80) ABUTH (ABUTH [3]) | Post-emergence activity (GR80) DATST (DATST [4]) | Pre-emergence activity (GR80) on DIGSA (DIGSA [6]) [g/ha] | Pre-emergence activity (GR80) on SOLNI (SOLNI [8]) | Post-emergence activity (GR80) SOLNI (SOLNI [9]) | Pre-emergence activity (GR80) on CHEAL (CHEAL [10]) | Pre-emergence activity (GR80) on PORAL (POROL [11]) | Post-emergence activity (GR80) CIRAR (CIRAR [14]) | Pre-emergence activity (GR80) on CIRAR (CIRAR [15]) | Post-emergence activity (GR80) AMARE (AMARE [16]) | Pre-emergence activity (GR80) on BRAPP (BRAPP [17]) | Post-emergence activity (GR80) CHEAL (CHEAL [18]) | Post-emergence activity (GR80) CONAR (CONAR [19]) | Pre-emergence activity (GR80) on AMARE (AMARE [21]) [g/ha] | Post-emergence activity (GR80) PORAL (POROL [22]) | Pre-emergence activity (GR80) on DATST (DATST [24]) | further results |
| --- | --- | --- | --- | --- | --- | --- | --- | --- | --- | --- | --- | --- | --- | --- | --- | --- | --- | --- | --- |
| CC(CNC(=O)c1cccc(C(F)(F)F)c1)NC(=O)c1cccc(F)c1F (centres unmarked) [Example 34] | 250 g/ha | 125 g/ha | phyto | 750 g/ha | 125 | 250 g/ha | phyto | 125 g/ha | 125 g/ha | 1000 g/ha | 125 g/ha | 750 g/ha | 250 g/ha | * (Where herbicidal activity was evident but 80% inhibition was not achieved at the highest rate tested (typically 1000 g/ha), an asterisk (*) is shown) | * (Where herbicidal activity was evident but 80% inhibition was not achieved at the highest rate tested (typically 1000 g/ha), an asterisk (*) is shown) | 125 | 250 g/ha | 250 g/ha | Pre-emergence activity (GR80) on SORHA (SORHA [5]): 750 g/ha; Pre-emergence activity (GR80) on ABUTH (ABUTH [7]): 500 g/ha; Pre-emergence activity (GR80) on SORVU (SORVU [12]): phyto; Pre-emergence activity (GR80) on CONAR (CONAR [13]): 750 g/ha; Pre-emergence activity (GR80) on PANMI (PANMI [20]): 250 g/ha; Pre-emergence activity (GR80) on ECHCG (ECHCG [23]): 1000 g/ha |
| C[C@H](CNC(=O)c1cccc(C(F)(F)F)c1)NC(=O)Oc1ccc(Cl)cc1 [Example 231] | phyto | phyto | [empty] | * (Where herbicidal activity was evident but 80% inhibition was not achieved at the highest rate tested (typically 1000 g/ha), an asterisk (*) is shown) | 1000 | phyto | [empty] | phyto | phyto | [empty] | phyto | phyto | phyto | phyto | phyto | 750 | phyto | phyto | Post-emergence activity (GR80) SETFA (SETFA [25]): [empty]; Post-emergence activity (GR80) SORHA (SORHA [26]): phyto; Post-emergence activity (GR80) ECHCG (ECHCG [27]): [empty]; Post-emergence activity (GR80) SORVU (SORVU [28]): phyto; Post-emergence activity (GR80) PANDI (PANDI [29]): phyto; Post-emergence activity (GR80) BRAPP (BRAPP [30]): [empty]; Post-emergence activity (GR80) DIGSA (DIGSA [31]): phyto; Post-emergence activity (GR80) PANMI (PANMI [32]): [empty] |
